The source of these data is patent publication US20220289816A1, “IMMUNOTHERAPY WITH B*07 RESTRICTED PEPTIDES AND COMBINATION OF PEPTIDES AGAINST CANCERS AND RELATED METHODS” (Immatics Biotechnologies GmbH, priority 2018, published 2022).

The test system of one test is CD8+ T cells. Briefly: In vitro immunogenicity: in vitro T-cell priming assay with aAPCs loaded with peptide/MHC complexes and anti-CD28 antibody, pMHC multimer readout. Format: cell-based, human. The following applies: pMHC multimer readout after priming of CD8+ T cells. An excerpt:
In order to obtain information regarding the immunogenicity of the TUMAPs of the present invention, the inventors performed investigations using an in vitro T-cell priming assay based on repeated stimulations of CD8+ T cells with artificial antigen presenting cells (aAPCs) loaded with peptide/MHC complexes and anti-CD28 antibody.
In order to perform in vitro stimulations by artificial antigen presenting cells loaded with peptide-MHC complex (pMHC) and anti-CD28 antibody, the inventors first isolated CD8+ T cells from fresh HLA-B*07 leukapheresis products via positive selection using CD8 microbeads (Miltenyi Biotec, Bergisch-Gladbach, Germany) of healthy donors obtained from the University clinics Mannheim, Germany, after informed consent.
PBMCs and isolated CD8+ lymphocytes were incubated in T-cell medium (TCM) until use consisting of RPMI-Glutamax (Invitrogen, Karlsruhe, Germany) supplemented with 10% heat inactivated human AB serum (PAN-Biotech, Aidenbach, Germany), 100 U/ml Penicillin/100 μg/ml Streptomycin (Cambrex, Cologne, Germany), 1 mM sodium pyruvate (CC Pro, Oberdorla, Germany), 20 μg/ml Gentamycin (Cambrex). 2.5 ng/ml IL-7 (PromoCell, Heidelberg, Germany) and 10 U/ml IL-2 (Novartis Pharma, Nürnberg, Germany) were also added to the TCM at this step.
Generation of pMHC/anti-CD28 coated beads, T-cell stimulations and readout was performed in a highly defined in vitro system using four different pMHC molecules per stimulation condition and 8 different pMHC molecules per readout condition.
The purified co-stimulatory mouse IgG2a anti human CD28 Ab 9.3 (Jung et al., 1987) was chemically biotinylated using Sulfo-N-hydroxysuccinimidobiotin as recommended by the manufacturer (Perbio, Bonn, Germany). Beads used were 5.6 μm diameter streptavidin coated polystyrene particles (Bangs Laboratories, Illinois, USA).
800.000 beads/200 μl were coated in 96-well plates in the presence of 4×12.5 ng different biotin-pMHC, washed and 600 ng biotin anti-CD28 were added subsequently in a volume of 200 μl. Stimulations were initiated in 96-well plates by co-incubating 1×10^6 CD8+ T cells with 2×10^5 washed coated beads in 200 μl TCM supplemented with 5 ng/ml IL-12 (PromoCell) for 3 days at 37° C. Half of the medium was then exchanged by fresh TCM supplemented with 80 U/ml IL-2 and incubating was continued for four days at 37° C. This stimulation cycle was performed for a total of three times. For the pMHC multimer readout using 8 different pMHC molecules per condition, a two-dimensional combinatorial coding approach was used as previously described (Andersen et al., 2012) with minor modifications encompassing coupling to five different fluorochromes. Finally, multimeric analyses were performed by staining the cells with Live/dead near IR dye (Invitrogen, Karlsruhe, Germany), CD8-FITC antibody clone SK1 (BD, Heidelberg, Germany) and fluorescent pMHC multimers. For analysis, a BD LSRII SORP cytometer equipped with appropriate lasers and filters was used. Peptide specific cells were calculated as percentage of total CD8+ cells. Evaluation of multimeric analysis was done using the FlowJo software (Tree Star, Oregon, USA). In vitro priming of specific multimer+CD8+ lymphocytes was detected by comparing to negative control stimulations.

For the next test, the target named is HLA-B*07 (Homo sapiens, UniProt P01889). Briefly: MHC binding assay (UV-ligand exchange, ELISA of stabilized MHC complexes). The following applies: peptide exchange yield on HLA-B*07, UV-ligand exchange. Put shortly:
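Binding is reported as exchange yield: an ELISA with HRP-conjugated anti-β2m (A450, TMB) quantified how much test peptide stabilized MHC after UV cleavage of a photolabile placeholder peptide. Exchange monomers were diluted 100-fold and captured on streptavidin-coated plates for 1 h at 37 °C.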
A general note: In an ELISA, binding on a coated surface is turned into a signal by an enzyme label.

Turning to “1 (RPRSLQCVSL; listed as Homo sapiens) [compound 1]”, the “Wells positive [%]” value in the test with CD8+ T cells (Table 10b) is on record as “+ (<20% = +)”. Besides, in the test with HLA-B*07, the Peptide exchange result is recorded as “++++ (>75% = ++++)”.
The corresponding values for “3 (MPYVVLTAL; listed as Homo sapiens) [compound 3]” are “+ (<20% = +)” and “++++ (>75% = ++++)”.
The corresponding values for “4 (GPKKFIVKL; listed as Homo sapiens) [compound 4]” are “+ (<20% = +)” and “+++ (>50 = +++)”.
The corresponding values for “5 (LPSLSHCSQL; listed as Homo sapiens) [compound 5]” are “++ (20%-49% = ++)” and “++++ (>75% = ++++)”.
As for “6 (LPLNSSTSL; listed as Homo sapiens) [compound 6]”, the “Wells positive [%]” value in the test with CD8+ T cells (Table 10b) is reported as “+ (<20% = +)”. Further, the Peptide exchange entry with HLA-B*07 is given as “++++ (>75% = ++++)”.
With “9 (RPDSRLLEL; listed as Homo sapiens) [compound 9]”, the “Wells positive [%]” value in the test on CD8+ T cells (Table 10b) is “+++ (50%-69% = +++)”. For the same substance, the Peptide exchange entry with HLA-B*07 is recorded as “++++ (>75% = ++++)”.
For the substance “12 (LPNTGRIGQLL; listed as Homo sapiens) [compound 12]”, the “Wells positive [%]” value in the test on CD8+ T cells (Table 10b) is “++ (20%-49% = ++)”. Moreover, the Peptide exchange result in the test with HLA-B*07 is “++++ (>75% = ++++)”.
The corresponding values for “17 (SPAAPLSPASSL; listed as Homo sapiens) [compound 17]” are “+ (<20% = +)” and “++++ (>75% = ++++)”.
Regarding “21 (APSRLLEL; listed as Homo sapiens) [compound 21]”, the “Wells positive [%]” value with CD8+ T cells (Table 10b) is “+ (<20% = +)”. Also, the Peptide exchange entry with HLA-B*07 is “++++ (>75% = ++++)”.
The corresponding values for “23 (VPRPTSTVGL; listed as Homo sapiens) [compound 23]” are “++ (20%-49% = ++)” and “+++ (>50 = +++)”.
The corresponding values for “24 (VPRPTSTVGLFL; listed as Homo sapiens) [compound 24]” are “+ (<20% = +)” and “++++ (>75% = ++++)”.
For “26 (SPSFSSTLLSL; listed as Homo sapiens) [compound 26]”, the “Wells positive [%]” value with CD8+ T cells (Table 10b) is listed as “+ (<20% = +)”. The Peptide exchange result with HLA-B*07 is “++++ (>75% = ++++)”.
The corresponding values for “33 (LPRGLSPARQL; listed as Homo sapiens) [compound 33]” are “++ (20%-49% = ++)” and “+++ (>50 = +++)”.
On to “38 (RPSFPNLTSF; listed as Homo sapiens) [compound 38]”, for which the “Wells positive [%]” value in the test on CD8+ T cells (Table 10b) is on record as “+ (<20% = +)”. For the same substance, the Peptide exchange result with HLA-B*07 is on record as “++++ (>75% = ++++)”.
For the substance “45 (TRPWSGPYIL; listed as Homo sapiens) [compound 45]”, the “Wells positive [%]” value in the test on CD8+ T cells (Table 10b) was “+ (<20% = +)”. Also, the Peptide exchange entry with HLA-B*07 is “+++ (>50 = +++)”.
The corresponding values for “48 (RPRYSIGL; listed as Homo sapiens) [compound 48]” are “+ (<20% = +)” and “+++ (>50 = +++)”.
The corresponding values for “49 (APEKARAFL; listed as Homo sapiens) [compound 49]” are “+ (<20% = +)” and “+++ (>50 = +++)”.
With “388 (SPSVSQLSVL; listed as Homo sapiens) [compound 388]”, the “Wells positive [%]” value with CD8+ T cells (Table 10a) is “++++ (>=70% = ++++)”.
On the same count and under the same terms, the entry for “389 (APLPRPGAVL; listed as Homo sapiens) [compound 389]” is “++ (20%-49% = ++)”; for “390 (SPRMSGLLSQT; listed as Homo sapiens) [compound 390]” it is “+++ (50%-69% = +++)”.
Still for that read-out and setting: under “391 (APRPASSL; listed as Homo sapiens) [compound 391]” stands “+ (<20% = +)”; under “392 (GPQPWHAAL; listed as Homo sapiens) [compound 392]”, “++ (20%-49% = ++)”.
On to “393 (APAAWLRSA; listed as Homo sapiens) [compound 393]”, for which, in the test on CD8+ T cells (Table 10a), the “Wells positive [%]” value is listed as “+++ (50%-69% = +++)”.
Same read-out and setting: under “396 (VPDVAQFVL; listed as Homo sapiens) [compound 396]” stands “++ (20%-49% = ++)”.
Still for that read-out and setting: under “398 (SPASRSISL; listed as Homo sapiens) [compound 398]” stands “+ (<20% = +)”; under “399 (NPFYPEVEL; listed as Homo sapiens) [compound 399]”, “+ (<20% = +)”.
For the substance “405 (LPFDGPGGIL; listed as Homo sapiens) [compound 405]”, in the test with CD8+ T cells (Table 10a), the “Wells positive [%]” value is given as “++++ (>=70% = ++++)”.
Turning to “406 (LPDGSRVEL; listed as Homo sapiens) [compound 406]”, the “Wells positive [%]” value in the test on CD8+ T cells (Table 10a) is “++++ (>=70% = ++++)”.
With “407 (FPRLVGPDF; listed as Homo sapiens) [compound 407]”, the “Wells positive [%]” value in the test with CD8+ T cells (Table 10a) is reported as “+++ (50%-69% = +++)”.
Consider “408 (YPKDIYSSF; listed as Homo sapiens) [compound 408]”, for which the “Wells positive [%]” value in the test on CD8+ T cells (Table 10a) is on record as “++ (20%-49% = ++)”.
Turning to “410 (SPRSWIQVQI; listed as Homo sapiens) [compound 410]”, the “Wells positive [%]” value in the test on CD8+ T cells (Table 10a) was “+ (<20% = +)”.
Same read-out and setting: under “411 (IPNWARQDL; listed as Homo sapiens) [compound 411]” stands “++++ (>=70% = ++++)”; under “414 (KPSESIYSAL; listed as Homo sapiens) [compound 414]”, “++ (20%-49% = ++)”.
Still for that read-out and setting: the entry for “415 (LPSDSHFKITF; listed as Homo sapiens) [compound 415]” is “++ (20%-49% = ++)”; for “418 (RPMTPTQIGPSL; listed as Homo sapiens) [compound 418]” it is “+ (<20% = +)”; for “419 (SPMWHVQQL; listed as Homo sapiens) [compound 419]” it is “++++ (>=70% = ++++)”.
In the case of “420 (SPRWLPVSL; listed as Homo sapiens) [compound 420]”, the “Wells positive [%]” value in the test on CD8+ T cells (Table 10a) is “++++ (>=70% = ++++)”.
On the same count and under the same terms, the entry for “423 (SPRVYWLGL; listed as Homo sapiens) [compound 423]” is “++++ (>=70% = ++++)”; for “425 (YPRGNHWAVGHL; listed as Homo sapiens) [compound 425]” it is “++ (20%-49% = ++)”; for “427 (VPSSRILQL; listed as Homo sapiens) [compound 427]” it is “+++ (50%-69% = +++)”.
On the same count and under the same terms, the entry for “429 (RPRALRDLQL; listed as Homo sapiens) [compound 429]” is “++ (20%-49% = ++)”.
The same measure, in the same setting: under “430 (RPRALRDLQLL; listed as Homo sapiens) [compound 430]” stands “+++ (50%-69% = +++)”; under “433 (IPEPSAQQL; listed as Homo sapiens) [compound 433]”, “+ (<20% = +)”.
For the substance “437 (FPYPYAERL; listed as Homo sapiens) [compound 437]”, the “Wells positive [%]” value in the test with CD8+ T cells (Table 10a) is “+++ (50%-69% = +++)”.
The same measure, in the same setting: under “440 (YPRTITPGM; listed as Homo sapiens) [compound 440]” stands “+ (<20% = +)”.
On to “443 (VPDGVSKVL; listed as Homo sapiens) [compound 443]”, for which the “Wells positive [%]” value with CD8+ T cells (Table 10a) is “+++ (50%-69% = +++)”.
Still for that read-out and setting: the entry for “445 (RPAATAVISL; listed as Homo sapiens) [compound 445]” is “+ (<20% = +)”.
